Assay results reported in patent publication US9616082B2, “Antitumor agent including irinotecan hydrochloride hydrate” (TAIHO PHARMACEUTICAL CO., LTD., priority 2013, dated 2017).
Counter-ions that a name gives are not always drawn.

Experiments:
[1] = test system: human colon cancer cell line (KM20C); assay: Survival of mice intraperitoneally transplanted with KM20C (Reference Example); assay type: in vivo, BALB/cA Jcl-nu mice; conditions: i.v., weekly; for ILS (increase in life span): 6 weeks from Day 3; for Survival time (day) Mean ± SD: 6 weeks from Day 3, n=10
Experimental: Cultured cells (1×10^7 cells/mouse) of human colon cancer cell line (KM20C) were intraperitoneally transplanted into 5-6 weeks old BALB/cA Jcl-nu mice after birth, and the mice were assigned to each group so that the mean body weight of each group became equal. The date on which such grouping (n=10) was performed was taken as Day 0.
[…]. Starting the dug administration from Day 3, a 5-days' daily oral administration of the FTD/TPI combination drug with 2-days' rest was performed for 6 weeks, and CPT-11 was administered once in a week from the tail vein for 6 weeks.
As an index of the antitumor effect, the number of survivors of each group of mice and the survival time of each group was compared.

colorectal cancer = assay: Combination therapy in a colorectal cancer patient, 28-day cycle schedule; assay type: in vivo, human; conditions: 28-day cycle: FTD/TPI two times 5-days' administration with 2-days' rest then 2 weeks rest, CPT-11 once in 2 weeks, side effects appeared strongly
Experimental: In view of this situation, when a combination therapy comprising repeating a 28-day cycle consisting of two times of 5-days' administration with 2-days' rest of an FTD/TPI combination drug, followed by rest of the drug administration for 2 weeks, and an administration of CPT-11 once in 2 weeks was performed in a colorectal cancer patient on the basis of an administration schedule in which effects of each drug have previously been reported as in Reference Example described later, only about 30% of the predetermined amount of CPT-11 could be administered because side effects appeared strongly. Since antitumor effect is generally proportional to the total dose, the present inventors have studied on administration schedule which can suppress the occurrence of side effects and in which a predetermined amount can be administered.

[2] = Kiso to Rinsho, (1990), Vol. 24, No. 14, 7-17; cited from earlier work
[3] = test system: human gastric cancer cell line (SC-2); assay: Combined administration test, SC-2 tumor (Example 2); conditions: CPT-11 100 mg/kg/day, Day 1, 15, i.v., q.d.; on Day 15

CCc1c2c(nc3ccc(OC(=O)N4CCC(N5CCCCC5)CC4)cc13)-c1cc3c(c(=O)n1C2)COC(=O)[C@]3(O)CC [CPT-11, irinotecan hydrochloride hydrate]
ILS (increase in life span) ([1]; CPT-11 80 mg/kg/day): 54.0%
Survival time (day) Mean ± SD ([1]; CPT-11 80 mg/kg/day): 61.6 ± 12.6 days
ILS (increase in life span) ([1]; CPT-11 100 mg/kg/day): 81.3%
Survival time (day) Mean ± SD ([1]; CPT-11 100 mg/kg/day): 72.5 ± 12.3 days
share of the predetermined amount of CPT-11 that could be administered (colorectal cancer): about 30%
dose at which a death case was reported [2]: 111 mg/kg/day
TGI (tumor growth inhibition rate) [3]: 78.2%
